These results are taken from article PMC3904662 (Nature, 2013).

Each structure is given as a SMILES string. Where two headings read alike, the source gives them in different places.

Assay [1] addresses T1, wild-type LeuT (Aquifex aeolicus, UniProt O67854).
Assay [2] concerns the target hSERT (human serotonin transporter). To be noted: cited from earlier work.
Another assay has as its target Δ13 LeuBAT (Aquifex aeolicus, UniProt O67854, A261V/E290S/G24D/G408T/I106S/I262L/I359G/N21Y/P362G/S256G/T254S/T409G/Y265F). The experiment in a line: biochemical.
Assay [3] has as its target T1, wild-type LeuT. The experiment in a line: biochemical. Particulars: saturation binding of 3H-mazindol.

As a reminder, the Kd is the constant that tells how readily two partners part at equilibrium.

As to `C[C@H](N)C(=O)O` [alanine], the “suppression of sertraline binding to wild-type LeuT” value on wild-type LeuT [1] (3 µM 3[H]-sertraline with 5 mM Ala) was “could not suppress the binding of sertraline”.

In the case of `OC1(c2ccc(Cl)cc2)c2ccccc2C2=NCCN21` (stereo not drawn) [mazindol], the dissociation constant (Kd) was 103 ± 4.7 nM in assay [2], 112 ± 18 nM on Δ13 LeuBAT and 22300 ± 5400 nM on wild-type LeuT [3].

Consider `Fc1ccc([C@@H]2CCNC[C@H]2COc2ccc3c(c2)OCO3)cc1` [paroxetine], for which the Kd was 431 ± 24 nM on Δ13 LeuBAT and “could not be fit to an isotherm because of low affinity” at wild-type LeuT [1] (saturation binding of 3H-labeled drug, n=3, ±s.e.m).
